One data set has as its system adenovirus type 5 (Ad5). Put plainly: Adenovirus type 5 inactivation in platelet units with amotosalen/UVA, plaque assay. The class given is cell-based. To be noted: for Log Reduction / Post-UVA PFU/mL: 250 mL platelets, UVA 3.8 J/cm^2. As for the experimental part: Another study was performed evaluating pathogen inactivation with treatment profiles from Example 1 and the non-enveloped virus adenovirus type 5 (Ad5). Units of platelets, prepared in 47% plasma/53% PAS at a volume of 250 mL, were inoculated with Ad5 (targeting the final concentration in unit of approximately 4.5 or 6.5 log PFU/mL), and dosed with the target amotosalen concentration (45 μM or 50 μM) in an illumination container of an INTERCEPT® Blood System processing set. The units were mixed well, and samples were collected from each unit prior to UV illumination to determine pre-treatment viral titers and amotosalen concentration. The Ad5-contaminated platelet units were then subjected to a UVA light dose of 3.8 J/cm^2 using an illuminator with LED light sources having peak wavelength between 340-350 nm. Samples were collected post-illumination and both the pre- and post-UVA illumination samples were analyzed by standard plaque assay to determine the level of virus inactivation.

Data set [1] is described as follows: Residual amotosalen (S-59) pre- and post-UVA in treated platelets, HPLC, manual dosing. The format is physicochemical. To be noted: for Post-UVA S-59: platelets 47% plasma/53% PAS. The protocol: Multiple studies were performed to determine the level of residual compound remaining after photochemical treatment of platelets with a psoralen for pathogen inactivation. More specifically, the studies were performed using a range of platelet volumes (e.g., 200 mL-450 mL; 50 mL volume increments) and using a single initial input concentration of the psoralen compound, amotosalen (S-59) by changing input volume. For each volume tested, units of platelets, prepared in 47% plasma/53% PAS, were pooled and split into two to three individual units, each in an illumination container of an INTERCEPT® Blood System processing set. The individual units were each dosed with amotosalen from an initial starting concentration (e.g., stock solution) at a volume needed to achieve a final 70 μM target concentration for each platelet volume, mixed well, and subjected to illumination with UVA light. The doses of UVA light tested for each volume included, for example, one or more light doses ranging from 2.5 J/cm^2 to 6.5 J/cm^2. (e.g., 2.5-4.5 J/cm^2 for 200 mL, 3.5-4.0 J/cm^2 for 250 mL 4.5-6.5 J/cm^2 for 300 mL, 5.2 J/cm^2 for 350 mL, 5.5-6.5 J/cm^2 for 400 mL, 6.4-6.5 J/cm^2 for 450 mL). UVA treatment was performed in the illumination container using an illuminator device with LED light (e.g., narrow bandwidth) having peak wavelength between 340-350 nm. Samples were collected both pre- and post-UVA illumination for HPLC analysis of amotosalen concentration.
From the multiple studies above, UVA light doses that provided low residual amotosalen levels (e.g., less than 7.5 μM) post-UVA treatment were selected for each specified platelet volume. These light doses are shown in Table 1 below, together with a corresponding measured volume of platelets, which the light dose may be used in conjunction with. This exemplary light dose and volume relationship identified in the studies may be further defined in the graph of FIG. 4A, which plots UVA light dose versus volume for achieving low residual amotosalen levels.
Each of the 40 μM, 50 μM, 60 μM and 70 μM test conditions used 250 mL sample volumes and UVA light doses of 3.8 J/cm^2. Amotosalen concentrations were determined before and after illumination with UVA.

The mark [2] stands for this setting: target S-59 45 μM, Pre-UVA 4.1 Log PFU/mL.
Where [3] appears, read: target S-59 50 μM, Pre-UVA 4.5 Log PFU/mL.
Setting [4] is: target S-59 50 μM, Pre-UVA 6.7 Log PFU/mL.

For the molecule `Cc1oc2c(C)c3oc(=O)cc(C)c3cc2c1COCCN` [S-59, 3-(2-aminoethoxymethyl)-2,5,9-trimethylfuro[3,2-g]chromen-7-one], the viral inactivation entry with adenovirus type 5 (Ad5) (each of the 45 μM or 50 μM target amotosalen input concentrations) is reported as “greater than 4 logs”. Besides, the “Log Reduction” value with adenovirus type 5 (Ad5) (setting [2]) is listed as more than 4.1 ± 0.2 log; with adenovirus type 5 (Ad5) (setting [3]), 4.5 ± 0.0 log; with adenovirus type 5 (Ad5) (setting [4]), not below 6.3 ± 0.5 log. The “Post-UVA PFU/mL” value in the data set on adenovirus type 5 (Ad5) (setting [2]) was 0.0 ± 0.0 PFU/mL; in the data set with adenovirus type 5 (Ad5) (setting [3]), 0.0 ± 0.0 PFU/mL; in the data set on adenovirus type 5 (Ad5) (setting [4]), not above 6.9 ± 12.7 PFU/mL. Besides, the “Post-UVA S-59” value in data set [1] (200 mL, target 70 μM, UVA 3.2 J/cm^2) came to 4.5 ± 1.5 µM; in data set [1] (250 mL, target 70 μM, UVA 3.8 J/cm^2), 5.0 ± 1.1 µM; in data set [1] (300 mL, target 70 μM, UVA 4.5 J/cm^2), 5.1 ± 1.3 µM; in data set [1] (350 mL, target 70 μM, UVA 5.2 J/cm^2), 5.0 ± 0.6 µM; in data set [1] (400 mL, target 70 μM, UVA 6.0 J/cm^2), 4.4 ± 0.8 µM; in data set [1] (450 mL, target 70 μM, UVA 6.4 J/cm^2), 5.2 ± 0.8 µM. In addition, the “Post-UVA residual amotosalen concentration” value in data set [1] (target 40 μM, 250 mL, UVA 3.8 J/cm^2) came out at 2.3 ± 0.7 µM; in data set [1] (target 50 μM, 250 mL, UVA 3.8 J/cm^2) it was 3.0 ± 0.8 µM; in data set [1] (target 60 μM, 250 mL, UVA 3.8 J/cm^2) it was 3.9 ± 1.4 µM; in data set [1] (target 70 μM, 250 mL, UVA 3.8 J/cm^2), 5.0 ± 1.1 µM.
